# Data as given in article PMC4142417, “Epigenetic Impacts of Ascorbate on Human Metastatic Melanoma Cells” (Frontiers in Oncology, 2014).
# Like-named read-outs stand apart in the source and are kept apart here.
# Legend:
# BLM melanoma cells = test: Cell-cycle analysis (propidium iodide, FACS); assay type: cell-based, human; conditions: 8 mM for 1 h
# Description: BLM cells were incubated with ascorbate at 8 mM. After 0–24 h (in 2 h intervals) the cells (1 × 10^6) were harvested, washed with cold PBS, fixed with 75% ethanol, and incubated at 4°C for at least 1 h. Cells were then centrifuged and washed twice in cold PBS. Intracellular DNA was labeled with propidium iodide solution [propidium iodide […] (Sigma) and RNase […] (Thermo Scientific) in PBS] and incubated at 4°C for 30 min in the dark. Cell cycle was analyzed using flow cytometry and FACSDiva software (BD Biosciences, Heidelberg, Germany). As shown previously ([5]), pharmacological doses of ascorbate in the low millimolar-range induce cell death in human cancer cells. However, since in the latter publication we only performed end-point analyses 24 h after incubation of the cells with ascorbate, for the current project we exposed BLM cells to pharmacological 8 mM ascorbate for 1 h, and the cells were ethanol-fixed every 2 h for 24 h to closely monitor cell-cycle alterations at 2 h intervals over 24 h. The cell cycle was analyzed with FACS after staining of the cells with propidium iodide. […] At 12 h post ascorbate exposure only a small percentage of the BLM cells were shifted toward the sub-G1 fraction of cells. Therefore, the 12 h time point after ascorbate exposure was chosen for the following experiments.  Figure 2 Pharmacological ascorbate induces apoptosis in human metastatic BLM melanoma cells in a time-dependent manner. BLM cells were treated with 8 mM ascorbate for 1 h. Cells were ethanol-fixed every 2 h for 24 h, stained with propidium iodide, and cell cycle was analyzed with FACS. Depicted are the FACS plots for the untreated control cells and for 2, 4, 6, 8, 12, 16, 20, and 24 h after ascorbate exposure. […] Gray colored graphs indicate the control cells; black colored graphs (2–8 h) the initial shift into G2/M phase; red colored graphs (12–24 h) the subsequent shift into sub-G1 fraction.
# [1] = system: human HDACs (HeLa nuclear extract); test: HDAC-inhibitor screening assay with HeLa nuclear extract; assay type: biochemical; conditions: 5–8000 μM, 2 h at 37°C
# Description: Determination of a possible HDAC-inhibitor activity of ascorbate was done by using the HDAC assay kit (Active Motif, Rixensart, Belgium). Ascorbate was diluted in assay buffer to the final concentrations of 5, 10, 20, 50, 100, 200 μM, and 8 mM. Assay was performed according to manufacturer’s protocol. Briefly, ascorbate was incubated with HeLa nuclear extract as a source of human HDACs for 2 h at 37°C and the developing time was set to 10 min. Each experiment was performed in triplicates and repeated three times.
# (A) Overall HDAC inhibition in cellular extracts of the human cell line HeLa by increasing concentrations of ascorbate (5–8000 μM). As reference inhibitor 100 μM suberoylanilide hydroxamic acid (SAHA) was used. Every concentration was tested three times in triplicates. (B) Specific fluorometric profiling assay using recombinant human HDACs of classes I, II, and IV. Specific inhibition values were generated for the treatment with 50 μM and 8 mM ascorbate. Inhibition values for every HDAC were yielded by two experiments, each performed in duplicates. Shown are mean ± SD. One-way ANOVA Dunnett’s multiple comparison test, n.s. indicates not significant.
# [2] = system: human HDAC1, HDAC2, HDAC3, HDAC4, HDAC5, HDAC6, HDAC7, HDAC8, HDAC9, HDAC10, and HDAC11; test: HDAC-inhibitor profiling assay (fluorometric, recombinant HDACs of classes I, II, and IV); assay type: biochemical; conditions: 50 μM and 8 mM ascorbate
# Description: The HDAC profiling assay was performed on basis of fluorometric measurement by Scottish Biomedical (Scottish Biomedical, Glasgow, UK). The percentage inhibition values of 50 μM and 8 mM ascorbate against human HDAC1, HDAC2, HDAC3, HDAC4, HDAC5, HDAC6, HDAC7, HDAC8, HDAC9, HDAC10, and HDAC11 was determined. Both concentrations of ascorbate were tested in two experiments, each in duplicates.
# [3] = system: DNA methyltransferase (DNMT) activity in MeWo melanoma cells; test: DNMT activity in nuclear extracts of treated MeWo cells; assay type: cell-based, human; conditions: 200 μM for 1 h, nuclear extract 12 h after treatment
# Description: (§1) DNMT activity was analyzed in the nuclear extracts with the DNMT activity/inhibition assay (Active Motif) according to the procedure described by the manufacturer.
# (§2) Global DNMT activity was determined in nuclear extracts of MeWo and BLM cells 12 h after 1 h treatment with 200 μM or 8 mM ascorbate.
# [4] = system: DNA methyltransferase (DNMT) activity in BLM melanoma cells; test: DNMT activity in nuclear extracts of treated BLM cells; assay type: cell-based, human; conditions: 200 μM for 1 h, nuclear extract 12 h after treatment
# Description: as §1, §2
# [5] = system: miRNA expression in BLM melanoma cells; test: miRNA expression chip analysis; assay type: cell-based, human
# Description: microRNA was isolated from BLM cells using the miRNeasy kit (Qiagen, Hilden, Germany) according to the procedure described by the manufacturer. miRNA expression analysis was performed on BLM melanoma cells (five groups: untreated; 200 μM, 8 mM ascorbate treated, 4 and 12 h after the 1 h treatment, all in triplicates) using the human miRNA Microarray Release 14.0, 8x15K (Agilent, Waldbronn, Germany) based on Sanger miRbase (release 14.0). Two hundred nanograms of RNA were used per sample. The miRNA expression analysis was kindly performed at the Genomic Core Facility of the European Molecular Biology Laboratory (EMBL, Heidelberg, Germany) according to the supplier’s instructions. Evaluation of raw data generated at the Genomic Core Facility of the EMBL was performed as described previously ([32]).
# Figure 6 Ascorbate alters the expression of miRNA in melanoma cells. A miRNA expression chip analysis was performed on human metastatic BLM melanoma cells (5 groups: untreated, 200 μM ascorbate, 8 mM ascorbate, both 4 and 12 h after ascorbate exposure; all in triplicates) using the human miRNA Microarray Release 14.0, 8x15K (Agilent Technologies) based on Sanger miRbase (release 14.0). A total of 151 miRNAs were differentially expressed in response to ascorbate.
# [6] = system: 9 human melanoma cell lines; parameters: method as in PMID 24330097; conditions: ref [5], cited from earlier work
# [7] = system: 60 cancer cell lines of the NCI60 panel; parameters: method as in PMID 24330097; conditions: ref [5], read-out: overall IC50 of all 60 cancer cell lines; cited from earlier work
# [8] = parameters: method as in PMID 23670640; conditions: i.v. administration of 70 g/m^2; ref [16]; cited from earlier work
# LOX-IMVI melanoma cells = system: LOX-IMVI melanoma cells; parameters: method as in PMID 24330097; conditions: 8 mM, ref [5]; cited from earlier work
# [9] = system: GLUT-1 expression (HIF-1α downstream target) in melanoma cell lines; parameters: method as in PMID 24330097; conditions: treatment at the individual IC50 concentrations, ref [5]; cited from earlier work
# [10] = 8 mM vs. 200 μM for 1 h, after 12 h
# [11] = 12 h after 1 h exposure, 8 mM vs. 200 μM ascorbate
smiles,measurement,setting,value
"O=C1O[C@H]([C@@H](O)CO)C(O)=C1O [ascorbate, ascorbic acid]",G2/M fraction of cells,BLM melanoma cells; 2 to 8 h after exposure,steadily increased
same,sub-G1 fraction of DNA fragmented cells (indicative for apoptosis),BLM melanoma cells; 12 h post-treatment,prominent increase
same,cell cycle shift toward sub-G1 fraction,BLM melanoma cells; 20 h post-treatment,completely shifted toward the sub-G1 fraction
same,overall HDAC inhibition,[1],only a marginal inhibitory activity
same,inhibition of the 11 human HDACs,[2],neither the physiological 50 μM nor the pharmacologic 8 mM ascorbate showed a significant inhibition
same,increase of DNMT activity,[3],4%
same,increase of DNMT activity,[4],18%
same,number of miRNAs differentially expressed in response to ascorbate,"[5]; 200 μM or 8 mM for 1 h, 4 and 12 h after exposure",151
same,number of up-regulated miRNAs,[5]; [10],32
same,up-regulation of the 32 miRNAs,[5]; [10],4- to 38 fold
same,Up-regulation of hsa-miR-99b,[5]; [11],2.44 2 × log^2
same,Up-regulation of hsa-miR-125b-2,[5]; [11],2.8 2 × log^2
same,Up-regulation of hsa-miR-134,[5]; [11],2.15 2 × log^2
same,Up-regulation of hsa-miR-135a,[5]; [11],2.45 2 × log^2
same,Up-regulation of hsa-miR-339-3p,[5]; [11],2.47 2 × log^2
same,Up-regulation of hsa-miR-345,[5]; [11],2.82 2 × log^2
same,Up-regulation of hsa-miR-375,[5]; [11],3.65 2 × log^2
same,Up-regulation of hsa-miR-422a,[5]; [11],4.29 2 × log^2
same,Up-regulation of hsa-miR-490-5p,[5]; [11],3.91 2 × log^2
same,Up-regulation of hsa-miR-516a-3p,[5]; [11],2.56 2 × log^2
same,Up-regulation of hsa-miR-564,[5]; [11],3.28 2 × log^2
same,Up-regulation of hsa-miR-583,[5]; [11],3.97 2 × log^2
same,Up-regulation of hsa-miR-596,[5]; [11],5.26 2 × log^2
same,Up-regulation of hsa-miR-614,[5]; [11],2.61 2 × log^2
same,Up-regulation of hsa-miR-617,[5]; [11],2.33 2 × log^2
same,Up-regulation of hsa-miR-629,[5]; [11],3.38 2 × log^2
same,Up-regulation of hsa-miR-630,[5]; [11],4.3 2 × log^2
same,Up-regulation of hsa-miR-654-5p,[5]; [11],3.39 2 × log^2
same,Up-regulation of hsa-miR-662,[5]; [11],3.59 2 × log^2
same,Up-regulation of hsa-miR-663,[5]; [11],2.05 2 × log^2
same,Up-regulation of hsa-miR-708,[5]; [11],3.48 2 × log^2
same,Up-regulation of hsa-miR-718,[5]; [11],2.97 2 × log^2
same,Up-regulation of hsa-miR-887,[5]; [11],5.14 2 × log^2
same,Up-regulation of hsa-miR-1181,[5]; [11],2.06 2 × log^2
same,Up-regulation of hsa-miR-1225-5p,[5]; [11],2.38 2 × log^2
same,Up-regulation of hsa-miR-1228,[5]; [11],2.24 2 × log^2
same,Up-regulation of hsa-miR-1246,[5]; [11],2.13 2 × log^2
same,Up-regulation of hsa-miR-1268,[5]; [11],2.84 2 × log^2
same,Up-regulation of hsa-miR-1915,[5]; [11],2.22 2 × log^2
same,Up-regulation of hsa-miR-1972,[5]; [11],2.22 2 × log^2
same,Up-regulation of hsa-miR-1973,[5]; [11],3.08 2 × log^2
same,Up-regulation of hsa-miR-2117,[5]; [11],2.65 2 × log^2
same,IC50 for all melanoma cell lines,[6]; NCI60 melanoma cell lines,low millimolar range
same,IC50,"[6]; NCI60 melanoma cell lines, read-out: IC50 for all melanoma cell lines",3.1 mM
same,IC50,"[6]; NCI60 melanoma cell lines, read-out: IC50 range across melanoma cell lines",0.2 to 8.5 mM
same,cytotoxic effect on melanoma cells,[6]; physiological ascorbate (200 μM),no cytotoxic effect
same,IC50,[7],4.5 mM
same,blood peak concentration,[8],up to 49 mM
same,intracellular peroxide radicals,LOX-IMVI melanoma cells,high amount
same,percentage of sub-G1 (apoptotic) cells determined by FACS,LOX-IMVI melanoma cells,increased percentage
same,GLUT-1 expression,[9],decreased
